Test results reported in patent US12630547B2, “RAS protein degraders, pharmaceutical compositions thereof, and their therapeutic applications” (BioTheryX, Inc., priority 2019, dated 2026).

Legend:
Assay type in all cases: cell-based
MOLM-13 cells = test: Cell viability assay (CELLTITER-GLO), MOLM-13 cells; conditions: Homo sapiens, MOLM-13, 72 h; Table 2; compound at 10 μM, 3 days; read-out: Effect on MOLM-13 cell viability (% DMSO)
How it was run: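 Viability, as % of DMSO control, was read by CellTiter-Glo luminescence after a 3-day compound exposure (single dose of 10 μM or 1 μM) at 37 °C. Cells plated at 4,000/well in RPMI 1640 with 10% FBS. Results reported as categories A <10%, B 10–<25%, C 25–<50%, D ≥50%.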

H358 cells = test: Cell viability assay (CELLTITER-GLO), H358 cells; conditions: Table 4; 3 days
Protocol: (§1) MOLM-13 cells, MV-4-11 cells, H23, and H358 cells were independently cultured in RPMI 1640 media supplemented with 10% fetal bovine serum, streptomycin and penicillin. The cells were plated in white walled 96-well plates at 4,000 cells/well. The cells were incubated in DMSO (control) or a compound for 3 days at 37° C. under 5% CO2. A CELLTITER-GLO® reagent (100 μL) was then added to each well. After a 10 min incubation with shaking, luminescence was measured using an ENVISION® multimode plate reader.
In Tables 1 and 2, each compound was tested at 10 μM; and in Table 3, each compound was tested at 1 μM. In Tables 1 to 3, the cell viability values as % DMSO are reported as “A,” “B,” “C,” or “D;” where “A” represents a % viability value of less than 10%; “B” represents a % viability value of no less than 10% and less than 25%; “C” represents a % viability value of no less than 25% and less than 50%; and “D” represents a % viability value of no less than 50%. Compound A is
(§2) IC50 values are summarized in Table 4, where “A” represents an IC50 value of no greater than 1 μM, “B” represents an IC50 value of greater than 1 μM and no greater than 5 μM, “C” represents an IC50 value of greater than 5 μM and no greater than 10 μM, and “D” represents an IC50 value of greater than 10 μM.

H23 cells = test: Cell viability assay (CELLTITER-GLO), H23 cells; conditions: Table 4; 3 days
Protocol: as §1, §2

SMILES | viability at 10 µM (MOLM-13 cells) [%] | Inhibition of H358 cells, IC50 (class) (H358 cells) | Inhibition of H23 cells, IC50 (class) (H23 cells)
C=C(Cl)C(=O)N1CCN(c2ncnc3c(F)c(-c4c(F)cccc4OCCCCCCCN4CCC(c5cc(F)cc6c5CN(C5CCC(=O)NC5=O)C6=O)CC4)c(Cl)cc23)CC1 (stereo not drawn) [Compound 43, 3-(4-(1-(7-(2-(6-Chloro-4-(4-(2-chloroacryloyl)piperazin-1-yl)-8-fluoroquinazolin-7-yl)-3-fluorophenoxy)heptyl)piperidin-4-yl)-6-fluoro-1-oxoisoindolin-2-yl)piperidine-2,6-dione] | < 10 | A′ | A′
CCC(=O)N1CC(N2Cc3ccc(-c4cc(O)cc5ccccc45)cc3N(CCCCCCCN3CCC(c4cc(F)cc5c4CN(C4CCC(=O)NC4=O)C5=O)CC3)C2=O)C1 (stereo not drawn) [Compound 44, 3-(6-Fluoro-4-(1-(7-(7-(3-hydroxynaphthalen-1-yl)-2-oxo-3-(1-propionylazetidin-3-yl)-3,4-dihydroquinazolin-1(2H)-yl)heptyl)piperidin-4-yl)-1-oxoisoindolin-2-yl)piperidine-2,6-dione] | < 10 | C′ | B′
C=CC(=O)N1CC(N2Cc3ccc(-c4cc(O)cc5ccccc45)cc3N(CCOCCOCCNc3cccc4c3C(=O)N(C3CCC(=O)NC3=O)C4=O)C2=O)C1 (stereo not drawn) [Compound 45, 4-((2-(2-(2-(3-(1-Acryloylazetidin-3-yl)-7-(3-hydroxynaphthalen-1-yl)-2-oxo-3,4-dihydroquinazolin-1(2H)-yl)ethoxy)ethoxy)ethyl)amino)-2-(2,6-dioxopiperidin-3-yl)isoindoline-1,3-dione] | ≥ 50 | C′ | B′
CCC(=O)N1CC(N2Cc3ccc(-c4cc(O)cc5ccccc45)cc3N(CCNCCCCCCCN3CCC(c4cc(F)cc5c4CN(C4CCC(=O)NC4=O)C5=O)CC3)C2=O)C1 (stereo not drawn) [Compound 46, 3-(6-Fluoro-4-(1-(7-((2-(7-(3-hydroxynaphthalen-1-yl)-2-oxo-3-(1-propionylazetidin-3-yl)-3,4-dihydroquinazolin-1(2H)-yl)ethyl)amino)heptyl)piperidin-4-yl)-1-oxoisoindolin-2-yl)piperidine-2,6-dione] | ≥ 50 | D′ | D′
C=CC(=O)N1C[C@H](C)N(c2nc(OCCOCCOCCOCCNc3cccc4c3C(=O)N(C3CCC(=O)NC3=O)C4=O)nc3c(F)c(-c4c(O)cccc4F)c(Cl)cc23)C[C@H]1C (stereo partly drawn) [Compound 58, 4-((2-(2-(2-(2-((4-((2S,5R)-4-Acryloyl-2,5-dimethylpiperazin-1-yl)-6-chloro-8-fluoro-7-(2-fluoro-6-hydroxyphenyl)quinazolin-2-yl)oxy)ethoxy)ethoxy)ethoxy)ethyl)amino)-2-(2,6-dioxopiperidin-3-yl)isoindoline-1,3-dione] | < 10 | B′ | B′
CCS(=O)(=O)N1CCN(c2ncnc3c(F)c(-c4c(F)cccc4OCCCCCCCN4CCC(c5cc(F)cc6c5CN(C5CCC(=O)NC5=O)C6=O)CC4)c(Cl)cc23)CC1 (stereo not drawn) [Compound 59, 3-(4-(1-(7-(2-(6-Chloro-4-(4-(ethylsulfonyl)piperazin-1-yl)-8-fluoroquinazolin-7-yl)-3-fluorophenoxy)heptyl)piperidin-4-yl)-6-fluoro-1-oxoisoindolin-2-yl)piperidine-2,6-dione] | < 10 | B′ | B′
CCC(=O)N1CCN(c2ncnc3c(F)c(-c4c(F)cccc4OCCCCCCCCCN4CCC(c5cc(F)cc6c5CN(C5CCC(=O)NC5=O)C6=O)CC4)c(Cl)cc23)CC1 (stereo not drawn) [Compound 61, 3-(4-(1-(9-(2-(6-Chloro-8-fluoro-4-(4-propionylpiperazin-1-yl)quinazolin-7-yl)-3-fluorophenoxy)nonyl)piperidin-4-yl)-6-fluoro-1-oxoisoindolin-2-yl)piperidine-2,6-dione] | < 10 | B′ | B′
C=CC(=O)N1CCN(c2ncnc3c(F)c(-c4c(F)cccc4OCCCNCc4ccc(COc5cccc6c5CN([C@H]5CCC(=O)NC5=O)C6=O)cc4)c(Cl)cc23)CC1 [Compound 62, (3S)-3-(4-((4-(((3-(2-(4-(4-Acryloylpiperazin-1-yl)-6-chloro-8-fluoroquinazolin-7-yl)-3-fluorophenoxy)propyl)amino)methyl)benzyl)oxy)-1-oxoisoindolin-2-yl)piperidine-2,6-dione] | < 10 | B′ | B′
CCC(=O)N1CCN(c2ncnc3c(F)c(-c4c(F)cccc4OCCCNCc4ccc(COc5cccc6c5CN([C@H]5CCC(=O)NC5=O)C6=O)cc4)c(Cl)cc23)CC1 [Compound 63, (3S)-3-(4-((4-(((3-(2-(6-Chloro-8-fluoro-4-(4-propionylpiperazin-1-yl)quinazolin-7-yl)-3-fluorophenoxy)propyl)amino)methyl)benzyl)oxy)-1-oxoisoindolin-2-yl)piperidine-2,6-dione] | 10 to 25 | C′ | C′
C=CC(=O)N1C[C@@H]2C(=O)N(C)c3cnc4c(F)c(-c5c(F)cccc5OCCCCCCCN5CCC(c6cc(F)cc7c6CN(C6CCC(=O)NC6=O)C7=O)CC5)c(Cl)cc4c3N2C[C@H]1C (stereo partly drawn) [Compound 64, 3-(4-(1-(7-(2-((2R,4aR)-3-Acryloyl-11-chloro-9-fluoro-2,6-dimethyl-5-oxo-2,3,4,4a,5,6-hexahydro-1H-pyrazino[1′,2′:4,5]pyrazino[2,3-c]quinolin-10-yl)-3-fluorophenoxy)heptyl)piperidin-4-yl)-6-fluoro-1-oxoisoindolin-2-yl)piperidine-2,6-dione] | < 10 | B′ | A′
CCC(=O)N1C[C@@H]2C(=O)N(C)c3cnc4c(F)c(-c5c(F)cccc5OCCCCCCCN5CCC(c6cc(F)cc7c6CN(C6CCC(=O)NC6=O)C7=O)CC5)c(Cl)cc4c3N2C[C@H]1C (stereo partly drawn) [Compound 65, 3-(4-(1-(7-(2-((2R,4aR)-11-Chloro-9-fluoro-2,6-dimethyl-5-oxo-3-propionyl-2,3,4,4a,5,6-hexahydro-1H-pyrazino[11′,2′:4,5]pyrazino[2,3-c]quinolin-10-yl)-3-fluorophenoxy)heptyl)piperidin-4-yl)-6-fluoro-1-oxoisoindolin-2-yl)piperidine-2,6-dione] | < 10 | B′ | B′
C=CC(=O)N1C[C@@H]2C(=O)N(CCCCCCCN3CCC(c4cc(F)cc5c4CN(C4CCC(=O)NC4=O)C5=O)CC3)c3cnc4c(F)c(-c5c(O)cccc5F)c(Cl)cc4c3N2C[C@H]1C (stereo partly drawn) [Compound 66, 3-(4-(1-(7-((2R,4aR)-3-Acryloyl-11-chloro-9-fluoro-10-(2-fluoro-6-hydroxyphenyl)-2-methyl-5-oxo-1,2,3,4,4a,5-hexahydro-6H-pyrazino[1′,2′:4,5]pyrazino[2,3-c]quinolin-6-yl)heptyl)piperidin-4-yl)-6-fluoro-1-oxoisoindolin-2-yl)piperidine-2,6-dione] | < 10 | A′ | B′
CCC(=O)N1C[C@@H]2C(=O)N(CCCCCCCN3CCC(c4cc(F)cc5c4CN(C4CCC(=O)NC4=O)C5=O)CC3)c3cnc4c(F)c(-c5c(O)cccc5F)c(Cl)cc4c3N2C[C@H]1C (stereo partly drawn) [Compound 67, 3-(4-(1-(7-((2R,4aR)-11-Chloro-9-fluoro-10-(2-fluoro-6-hydroxyphenyl)-2-methyl-5-oxo-3-propionyl-1,2,3,4,4a,5-hexahydro-6H-pyrazino[11′,2′:4,5]pyrazino[2,3-c]quinolin-6-yl)heptyl)piperidin-4-yl)-6-fluoro-1-oxoisoindolin-2-yl)piperidine-2,6-dione] | < 10 | B′ | B′
C=CC(=O)N1CCN(c2ncnc3c(F)c(-c4c(F)cccc4OCCCCCCCN4CCC(c5scc6c5CN(C5CCC(=O)NC5=O)C6=O)CC4)c(Cl)cc23)CC1 (stereo not drawn) [Compound 70, 3-(1-(1-(7-(2-(4-(4-Acryloylpiperazin-1-yl)-6-chloro-8-fluoroquinazolin-7-yl)-3-fluorophenoxy)heptyl)piperidin-4-yl)-4-oxo-4H-thieno[3,4-c]pyrrol-5(6H)-yl)piperidine-2,6-dione] | < 10 | A′ | B′
